Data as given in PubChem BioAssay (NCI).
“And” between values parts separate entries of the source, which are not always exact repeats. Equal values may be shown once.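 Briefly, cells in 96-well plates were exposed to five compound concentrations for 48 h, and endpoints were estimated by linear interpolation. At the GI50, growth is halved. At the TGI there is no net growth.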

Assays:
Assay in all cases: NCI tumour cell line growth inhibition, 48 h
[1] = test system: CAKI-1 renal
[2] = test system: UO-31 renal
[3] = test system: HOP-92 NSCLC
[4] = test system: K-562 leukemia
[5] = test system: SK-MEL-5 melanoma
[6] = test system: MCF7 breast
[7] = test system: A549 NSCLC
[8] = test system: MALME-3M melanoma
[9] = test system: HOP-62 NSCLC
[10] = test system: NCI-H23 lung
[11] = test system: UACC-62 melanoma
[12] = test system: HCC-2998 colon
[13] = test system: KM12 colon
[14] = test system: SK-OV-3 ovarian
[15] = test system: HS 578T breast
[16] = test system: IGROV1 ovarian
[17] = test system: OVCAR-5 ovarian
[18] = test system: NCI/ADR-RES ovarian
[19] = test system: SK-MEL-2 melanoma
[20] = test system: OVCAR-3 ovarian
[21] = test system: HCT-15 colon
[22] = test system: COLO 205 colon
[23] = test system: OVCAR-4 ovarian
[24] = test system: LOX IMVI melanoma
[25] = test system: PC-3 prostate
[26] = test system: NCI-H460 lung
[27] = test system: SNB-19 CNS
[28] = test system: MDA-MB-435
[29] = test system: SR leukemia
[30] = test system: ACHN renal
[31] = test system: DU-145 prostate
[32] = test system: SK-MEL-28 melanoma
[33] = test system: A498 renal
[34] = test system: OVCAR-8 ovarian
[35] = test system: TK-10 renal
[36] = test system: SF-295 CNS
[37] = test system: SN12C renal
[38] = test system: MOLT-4 leukemia
[39] = test system: RPMI-8226 leukemia
[40] = test system: HCT-116 colon
[41] = test system: T-47D breast
[42] = test system: SF-268 CNS
[43] = test system: U251 CNS
[44] = test system: NCI-H226 lung
[45] = test system: 786-0 renal
[46] = test system: M14 melanoma
[47] = test system: NCI-H522 lung
[48] = test system: RXF 393 renal
[49] = test system: CCRF-CEM leukemia
[50] = test system: HL-60(TB) leukemia
[51] = test system: EKVX NSCLC
[52] = test system: HT29 colon
[53] = test system: MDA-MB-231 breast
[54] = test system: SF-539 CNS
[55] = test system: SW-620 colon
[56] = test system: BT-549 breast
[57] = test system: UACC-257 melanoma

O=C1C(Cl)=C(Nc2cccc(O)c2)C(=O)N1c1ccc(Cl)c(Cl)c1
GI50 [1]: 22.8 µM
TGI [1]: 59.1 µM
GI50 [2]: 31.7 µM
TGI [2]: > 100 µM
GI50 [3]: 21.8 µM
TGI [3]: 70.6 µM
GI50 [4]: 25.5 µM
TGI [4]: > 100 µM
GI50 [5]: 20 µM
TGI [5]: 64.7 µM
GI50 [6]: 25.1 µM
TGI [6]: 85.1 µM
GI50 [7]: 23.9 µM
TGI [7]: 60.6 µM
GI50 [8]: 19.7 µM
TGI [8]: 55 µM
GI50 [9]: 16.4 µM
TGI [9]: 32.5 µM
GI50 [10]: 15.4 µM
TGI [10]: 31.3 µM
GI50 [11]: 27.6 µM
TGI [11]: > 100 µM
GI50 [12]: 15 µM
TGI [12]: 29.5 µM
GI50 [13]: 17 µM
TGI [13]: 32.5 µM
GI50 [14]: 25.5 µM
TGI [14]: 73.3 µM
GI50 [15]: 20.5 µM
TGI [15]: 54.3 µM
GI50 [16]: 28.4 µM
TGI [16]: > 100 µM
GI50 [17]: 18 µM
TGI [17]: 35.5 µM
GI50 [18]: 22.4 µM
TGI [18]: 52.3 µM
GI50 [19]: 54.8 µM
TGI [19]: > 100 µM
GI50 [20]: 17.9 µM
TGI [20]: 36.4 µM
GI50 [21]: 19.9 µM
TGI [21]: 45.5 µM
GI50 [22]: 32 µM
TGI [22]: 89.9 µM
GI50 [23]: 34.4 µM
TGI [23]: > 100 µM
GI50 [24]: 15.8 µM
TGI [24]: 33.3 µM
GI50 [25]: 19 µM
TGI [25]: 49.6 µM
GI50 [26]: 19.1 µM
TGI [26]: 50.5 µM
GI50 [27]: 36 µM
TGI [27]: > 100 µM
GI50 [28]: 21.9 µM
TGI [28]: 59.6 µM
GI50 [29]: 14.2 µM
TGI [29]: 67.1 µM
GI50 [30]: 17.3 µM
TGI [30]: 33.3 µM
GI50 [31]: 19.3 µM
TGI [31]: 42.1 µM
GI50 [32]: 40.6 µM
TGI [32]: > 100 µM
GI50 [33]: 12.1 µM
TGI [33]: 28.7 µM
GI50 [34]: 23.6 µM
TGI [34]: 52.2 µM
GI50 [35]: 25.7 µM
TGI [35]: 63.8 µM
GI50 [36]: 25.9 µM
TGI [36]: 83.5 µM
GI50 [37]: 18.1 µM
TGI [37]: 39.4 µM
GI50 [38]: 15.1 µM
TGI [38]: > 100 µM
GI50 [39]: 15.9 µM
TGI [39]: 57.7 µM
GI50 [40]: 18.4 µM
TGI [40]: 33.9 µM
GI50 [41]: 41 µM
TGI [41]: > 100 µM
GI50 [42]: 23.8 µM
TGI [42]: 62.3 µM
GI50 [43]: 15.5 µM
TGI [43]: 30.9 µM
GI50 [44]: 19.7 µM
TGI [44]: 46.6 µM
GI50 [45]: 17.7 µM
TGI [45]: 35.3 µM
GI50 [46]: 18.9 µM
TGI [46]: 37.4 µM
GI50 [47]: 30 µM
TGI [47]: > 100 µM
GI50 [48]: 14.5 µM
TGI [48]: 42.2 µM
GI50 [49]: 25.2 µM
TGI [49]: 74.6 µM

CNc1ccc(-c2cc(=O)oc3ccc(Cl)cc23)cc1
TGI [1]: > 100 µM
GI50 [2]: 0.417 µM and 0.501 µM
TGI [2]: > 100 µM
TGI [3]: 7.96 µM
GI50 [4]: 0.0312 µM and 0.0363 µM
TGI [4]: > 100 µM
GI50 [5]: 0.121 µM and 0.0772 µM
TGI [5]: 1.11 µM and 2.56 µM
GI50 [6]: 0.229 µM and 0.151 µM
TGI [6]: > 100 µM
GI50 [7]: 0.137 µM and 0.0856 µM
TGI [7]: > 100 µM
GI50 [9]: 0.0696 µM and 0.169 µM
TGI [9]: > 100 µM
GI50 [10]: 0.311 µM and 0.219 µM
TGI [10]: > 100 µM
GI50 [11]: 0.0369 µM and 0.0431 µM
TGI [11]: 89.7 µM
GI50 [50]: 0.0431 µM and 0.0317 µM
TGI [50]: 2.05 µM and 1.14 µM
GI50 [12]: 0.373 µM and 0.127 µM
TGI [12]: 17.1 µM
GI50 [13]: 0.0506 µM and 0.0433 µM
TGI [13]: > 100 µM
GI50 [51]: 0.589 µM and 0.279 µM
TGI [51]: > 100 µM
GI50 [14]: 0.218 µM and 0.107 µM
TGI [14]: > 100 µM
GI50 [15]: 0.083 µM and 0.0725 µM
TGI [16]: > 100 µM
GI50 [17]: 0.795 µM and 0.457 µM
TGI [17]: > 100 µM
GI50 [18]: 0.0371 µM and 0.0363 µM
GI50 [19]: 0.215 µM and 0.0294 µM
TGI [19]: 0.0932 µM
GI50 [52]: 0.297 µM and 0.139 µM
TGI [52]: 0.496 µM
GI50 [53]: 1.07 µM and 0.424 µM
TGI [53]: > 100 µM
GI50 [20]: 0.0342 µM
TGI [20]: 0.27 µM
GI50 [54]: 0.0527 µM and 0.0255 µM
TGI [54]: 0.481 µM and 0.109 µM
GI50 [21]: 0.0421 µM
GI50 [22]: 0.278 µM and 0.201 µM
TGI [22]: 1.17 µM and 1.27 µM
TGI [23]: > 100 µM
GI50 [24]: 0.0636 µM and 0.0542 µM
TGI [24]: > 100 µM
GI50 [55]: 0.0477 µM and 0.0437 µM
TGI [55]: > 100 µM
GI50 [25]: 0.226 µM and 0.064 µM
TGI [25]: > 100 µM
GI50 [26]: 0.0487 µM and 0.0441 µM
TGI [26]: > 100 µM
GI50 [27]: 0.23 µM and 0.0717 µM
TGI [27]: > 100 µM
GI50 [29]: 0.0463 µM
GI50 [30]: 0.104 µM and 0.0558 µM
TGI [30]: > 100 µM
GI50 [31]: 0.183 µM and 0.155 µM
GI50 [32]: 2.08 µM
TGI [32]: > 100 µM
GI50 [33]: 0.0811 µM and 0.0598 µM
GI50 [34]: 0.601 µM and 0.197 µM
TGI [34]: > 100 µM
GI50 [35]: 0.702 µM and 0.21 µM
TGI [35]: > 100 µM
GI50 [36]: 0.0479 µM and 0.0322 µM
TGI [36]: > 100 µM
TGI [37]: > 100 µM
GI50 [38]: 0.108 µM and 0.0626 µM
TGI [38]: 50.1 µM
GI50 [56]: 0.102 µM and 0.044 µM
TGI [56]: 3.02 µM
GI50 [39]: 0.194 µM and 0.154 µM
TGI [39]: 33.9 µM
GI50 [40]: 0.044 µM
TGI [40]: 5.23 µM
GI50 [42]: 0.247 µM and 0.066 µM
TGI [42]: > 100 µM
GI50 [43]: 0.175 µM and 0.0472 µM
TGI [43]: > 100 µM
GI50 [44]: 0.719 µM and 4.05 µM
TGI [44]: > 100 µM
GI50 [45]: 0.133 µM and 0.0442 µM
TGI [45]: > 100 µM
GI50 [46]: 0.0393 µM and 0.0313 µM
TGI [46]: > 100 µM
GI50 [47]: 0.03 µM
TGI [47]: 0.311 µM
GI50 [48]: 0.0912 µM
TGI [48]: > 100 µM
GI50 [57]: > 100 µM
TGI [57]: > 100 µM
GI50 [49]: 0.146 µM and 0.0494 µM
TGI [49]: > 100 µM
